Assay results taken from PMC8511391, “Optimization of Pichia pastoris Expression System for High-Level Production of Margatoxin” (Frontiers in Pharmacology, 2021).
Bridge positions count the residues as written; N and C are the ends. Ends that are not written are not given here. Peptide text beside a SMILES is read from it.

Assays:
[1] = molecular target: T1, hKv1.3 (Homo sapiens, UniProt P22001); type: cell-based; conditions: for inhibition of whole-cell current at block equilibrium: 200 pM toxin, hKv1.3
T1 construct: endogenous in cells
Description: The human venous blood from anonymized healthy donors was obtained from a blood bank. The peripheral blood mononuclear cells were isolated through Histopaque1077 (Sigma-Aldrich Hungary, Budapest, Hungary) density gradient centrifugation. Cells obtained were resuspended in RPMI 1640 medium containing 10% fetal calf serum (Sigma-Aldrich), 100 µg/ml penicillin, 100 µg/ml streptomycin, and 2 mM L glutamine, seeded in a 24-well culture plate at a density of 5 x 10^5 cells per ml, and grown in a 5% CO2 incubator at 37°C for 2–5 days. Phytohemagglutinin A (Sigma-Aldrich) was added in 5, 7, and 10 µg/ml concentrations to the medium to boost the potassium ion channel expression.
(§8) Electrophysiological measurements were performed by using the patch-clamp technique in whole-cell or outside-out patch configuration and voltage clamp mode using the Multiclamp 700B amplifier and Axon Digidata1440 digitizer (Molecular Devices, Sunnyvale, CA). Micropipettes were pulled from GC150F-15 borosilicate capillaries (Harvard Apparatus Kent, United Kingdom), resulting in 3–5 MΩ resistance in the bath solution. The extracellular solution contained 145 mM NaCl, 5 mM KCl, 1 mM MgCl2, 2.5 mM CaCl2, 5.5 mM glucose, and 10 mM HEPES, with a pH of 7.35 and an osmolarity between 302 and 308 mOsM/L. When the toxins were dissolved at different molar concentrations in bath solution, it was supplemented with 0.1 mg/ml of BSA. The pipette filling (intracellular) solution consisted of 140 mM KF, 2 mM MgCl2, 1 mM CaCl2, 10 mM HEPES, and 11 mM EGTA, with a pH of 7.22 and an osmolarity of 295 mOsM/L.
To record the hKv1.3 and hKv1.2 currents, 15- to 200-ms-long depolarization impulses were applied at +50 mV from a holding potential of −120 mV every 15 s. The pClamp 10.1 software package was used to acquire and analyze the measured data. Current traces were low-pass filtered by the analog four-pole Bessel filters of the amplifiers, and the sampling frequency was set at 20 kHz, at least twice that of the filter cutoff frequency. The effect of the toxin at a given molar concentration was calculated as the remaining current fraction (RCF = I/I0, where I0 is the peak current in the absence of the toxin and I is the peak current at equilibrium block at a given toxin concentration). The data points on dose–response curves represent the mean of 3–4 individual measurements. […]
Pharmacological activity of both versions of rMgTx was evaluated by studying their effect on the hKv1.2 and hKv1.3 ion channels. The hKv1.2 current was recorded in CHO cells, which heterologously expressed the hKv1.2 ion channel, and hKv1.3 current was recorded in the human peripheral blood lymphocytes. […]

[2] = molecular target: T2, hKv1.2 (Homo sapiens, UniProt P16389); assay: Patch-clamp block of hKv1.2 current (dose-response / equilibrium block) in transfected CHO cells; type: cell-based; conditions: for block of whole-cell current at equilibrium: 100 pM toxin, hKv1.2, CHO cells
T2 construct: GFP (from vector pCMV6-GFP); host or cells: CHO cells, transient transfection with Lipofectamine 2000
Description: as §8
Pharmacological activity of both versions of rMgTx was evaluated by studying their effect on the hKv1.2 and hKv1.3 ion channels. […] A custom-built perfusion system was used to apply toxins at a very small perfusion rate of 200 µl/min. […]

[3] = molecular target: T1, hKv1.3; assay: Binding and unbinding kinetics (wash-in/washout, patch-clamp) on hKv1.3; conditions: for koff: Kv1.3, calculated from averaged τ off; for koff / k on: 3-5 independent experiments; for k on: Kv1.3, calculated from averaged τ on and τ off, 200 pM toxin; for τ on: hKv1.3, 200 pM toxin, wash-in, single exponential; for τ on / τ off: n = 4, ± SEM; for τ off: hKv1.3, washout after 200 pM toxin
Description: (§1) Electrophysiological measurements were performed by using the patch-clamp technique in whole-cell or outside-out patch configuration and voltage clamp mode using the Multiclamp 700B amplifier and Axon Digidata1440 digitizer (Molecular Devices, Sunnyvale, CA). Micropipettes were pulled from GC150F-15 borosilicate capillaries (Harvard Apparatus Kent, United Kingdom), resulting in 3–5 MΩ resistance in the bath solution. The extracellular solution contained 145 mM NaCl, 5 mM KCl, 1 mM MgCl2, 2.5 mM CaCl2, 5.5 mM glucose, and 10 mM HEPES, with a pH of 7.35 and an osmolarity between 302 and 308 mOsM/L. When the toxins were dissolved at different molar concentrations in bath solution, it was supplemented with 0.1 mg/ml of BSA. The pipette filling (intracellular) solution consisted of 140 mM KF, 2 mM MgCl2, 1 mM CaCl2, 10 mM HEPES, and 11 mM EGTA, with a pH of 7.22 and an osmolarity of 295 mOsM/L.
(§2) To record the hKv1.3 and hKv1.2 currents, 15- to 200-ms-long depolarization impulses were applied at +50 mV from a holding potential of −120 mV every 15 s. The pClamp 10.1 software package was used to acquire and analyze the measured data. Current traces were low-pass filtered by the analog four-pole Bessel filters of the amplifiers, and the sampling frequency was set at 20 kHz, at least twice that of the filter cutoff frequency. The effect of the toxin at a given molar concentration was calculated as the remaining current fraction (RCF = I/I0, where I0 is the peak current in the absence of the toxin and I is the peak current at equilibrium block at a given toxin concentration). The data points on dose–response curves represent the mean of 3–4 individual measurements. The data points were fitted with a three-parameter [inhibition] vs response model, RCF = Bottom + [Top–Bottom)/(1+([toxin]/K d )], where Top and Bottom values were constrained to 1 and 0, respectively, and [toxin] is the concentration of the toxin. The best fit curve gave K d of the given toxin.
(§3) To examine the effect of additional residues of TrMgTx on binding to the ion channel, the association and dissociation rate constants of both the versions of the toxin were determined for the Kv1.3 channel of the activated human T lymphocytes and the hKv1.2 channel transiently expressed in the CHO cell. Whole-cell currents were recorded after applying the toxin (200 pM for Kv1.3 and 100 pM for Kv1.2) to the extracellular solution until the equilibrium block was achieved (wash-in), and then removed it by perfusing the toxin-free control solution (washout). Peak currents at a time point t [I(t)] were normalized to the peak current in the absence of the toxin [Inorm(t) = I(t)/I0], and these were plotted as a function of time. The association time constant (τ on ) was determined by fitting the data points during the wash-in procedure in the one-phase decay equation: Inorm(t)=((1−RCF)×e^−t/τon)+RCF , with the RCF = I/I0 at the equilibrium block as defined in the Electrophysiology section. The dissociation time constant (τ off ) was determined by fitting the following equation to the data points during the washout procedure: Inorm(t)=RCF+(1−e^−t/τoff).
(§4) The association rate constant (k on ) and dissociation rate constant (k off ) were calculated from the measured time constants, assuming a simple bimolecular interaction between the channel and toxin, and by using the following equations ([Peter et al., 2001]), with τon and τoff defined above, and [toxin] as the toxin concentration: kon=1−(τon×koff)/τon×[toxin], koff=1/τoff.

[4] = molecular target: T2, hKv1.2; assay: Binding and unbinding kinetics (wash-in/washout, patch-clamp) on hKv1.2; conditions: for k on: Kv1.2, calculated from averaged τ on and τ off, 100 pM toxin; for τ on: hKv1.2, 100 pM toxin, wash-in; for τ on / τ off: ± SEM; for recovery from block on washout: hKv1.2, toxin-free solution after 100 pM; for τ off: hKv1.2, washout after 100 pM toxin
Description: CHO cells were transiently transfected with the vector pCMV6-GFP (OriGene Technologies, Germany) encoding the human Kv1.2 ion channel using Lipofectamine 2000 (Invitrogen, Carlsbad, CA), following the manufacturer's protocol, and grown under the standard conditions as used previously ([Bagdány et al., 2005]). GFP-positive transfectants were identified with Nikon TE 2000U fluorescence microscope (Nikon, Tokyo, Japan), and currents were recorded after 24 h post transfection.
as §1, §2, §3, §4

[5] = system: IL2R (CD25) expression in CD4^+ TEM cells; assay: IL2R (CD25) expression in anti-CD3-stimulated CD4+ TEM lymphocytes (flow cytometry); type: cell-based, human; conditions: for inhibition of IL2R expression: 24 h anti-CD3 stimulation, three donors, technical duplicates, MFI normalized to stimulated; for effect on upregulation of IL2R expression: ∼100× K d (TrMgTx 8.5 nM, UrMgTx 5 nM), 24 h, anti-CD3
Description: (§5) The mononuclear cells were isolated from anonymized healthy donors as described earlier. Prior to CD4^+ TEM cells separation, dead cells were removed using the Dead Cell Removal Microbead Kit (Miltenyi Biotec B.V & CO. KG, Bergisch Gladbach, Germany). Untouched CD4^+ TEM lymphocytes were purified through magnetic cell sorting (negative selection) with the CD4^+ Effector Memory T Cell Isolation Kit (Miltenyi Biotec B.V. & Co. KG, Bergisch Gladbach, Germany) according to the manufacturer's protocol.
(§6) For TCR-specific stimulation, anti-human CD3 monoclonal antibodies (clone OKT3, BioLegend, San Diego, CA) were bound to the surface of 24-well cell culture plates at a density of 5 µg/well in phosphate-buffered saline (PBS) overnight at 4°C. Before seeding the cells, the wells were washed twice with PBS to remove the unbound antibodies. The CD4^+ TEM cells were divided into four groups: 1) unstimulated, 2) stimulated, 3) stimulated + TrMgTx (8.5 nM), and 4) stimulated + UrMgTx (5 nM). The cells were seeded at a density of 0.5×10^6 cells/ml per well, and when indicated, the cells were preincubated with the toxins for 5 min prior to the stimulation. The plate was incubated at 37°C in 5% CO2 for 24 h. Each experiment was performed in technical duplicates on three different donors.
(§7) For quantifying the extent of TEM cell stimulation, cells were washed with PBS buffer containing 1% of fetal bovine serum (FBS) and stained with fluorescein isothiocyanate (FITC)–labeled anti-human CD154 (CD40L) antibody (clones 24–31, BioLegend, San Diego, CA) and PerCP/Cyanine5.5–labeled anti-human CD25 (IL2R) antibody (clone BC96, BioLegend) at 4°C for 20 min. Cells were washed with the PBS + 1% FBS buffer and resuspended in 150 µl in PBS + 1% FBS. Samples were measured with NovoCyte 3000 RYB flow cytometer (ACEA Bioscience Inc.), FITC and PerCP/Cyanine5.5 were excited by using blue laser (488 nm), and 530/30 nm and 695/40 nm emission filters were used, respectively. Flow cytometry data were analyzed using FCS Express 6.0 (De Novo Software, Glendale, CA). Briefly, cells were gated on the basis of their FSC and SSC parameters, and then, the histograms corresponding to CD40L and CD25 were plotted as peak-normalized overlays. Mean fluorescent intensities (MFIs) were computed from the histograms and normalized to that of their stimulated (S) but not treated control. The negative (unlabeled) and unstimulated control (US) were always used for comparison.

[6] = system: CD40L expression in CD4^+ TEM cells; assay: CD40L (CD154) expression in anti-CD3-stimulated CD4+ TEM lymphocytes (flow cytometry); type: cell-based, human; conditions: for CD40L expression of stimulated, treated cells vs unstimulated cells: TrMgTx 8.5 nM or UrMgTx 5 nM; for CD40L expression of stimulated, treated cells vs unstimulated cells / effect on upregulation of CD40L expression: 24 h; for inhibition of CD40L expression: 24 h anti-CD3 stimulation, three donors, technical duplicates, MFI normalized to stimulated; for effect on upregulation of CD40L expression: ∼100× K d (TrMgTx 8.5 nM, UrMgTx 5 nM), anti-CD3
Description: as §5, §6, §7

[7] = molecular target: Kv1.3; conditions: cited from earlier work
Description: Voltage-gated potassium (Kv) channels are present in a variety of cells and tissues where they regulate multiple physiological processes, including cardiac function, neural excitability, muscle contraction, cell proliferation, cell volume control, and hormonal secretion ([Coetzee et al., 1999]; [Giangiacomo et al., 2004]). […] Previous studies report the production of recombinant MgTx (rMgTx) in E. coli and P. ... || Pharmacological activity of both versions of rMgTx was evaluated by studying their effect on the hKv1.2 and hKv1.3 ion channels. The hKv1.2 current was recorded in CHO cells, which heterologously expressed the hKv1.2 ion channel, and hKv1.3 current was recorded in the human peripheral blood lymphocytes. The stimulation of the hKv1.3 channel expression (activation of isolated mononuclear cells by PHA, see the Materials and Methods section) and recording conditions (no Ca^2+ in the pipette to elicit Ca^2+-activated K^+ channels) guaranteed that the current recorded in these cells is K^+ current ... || (+ 2 further places)

T2 sequence (P16389 whole entry): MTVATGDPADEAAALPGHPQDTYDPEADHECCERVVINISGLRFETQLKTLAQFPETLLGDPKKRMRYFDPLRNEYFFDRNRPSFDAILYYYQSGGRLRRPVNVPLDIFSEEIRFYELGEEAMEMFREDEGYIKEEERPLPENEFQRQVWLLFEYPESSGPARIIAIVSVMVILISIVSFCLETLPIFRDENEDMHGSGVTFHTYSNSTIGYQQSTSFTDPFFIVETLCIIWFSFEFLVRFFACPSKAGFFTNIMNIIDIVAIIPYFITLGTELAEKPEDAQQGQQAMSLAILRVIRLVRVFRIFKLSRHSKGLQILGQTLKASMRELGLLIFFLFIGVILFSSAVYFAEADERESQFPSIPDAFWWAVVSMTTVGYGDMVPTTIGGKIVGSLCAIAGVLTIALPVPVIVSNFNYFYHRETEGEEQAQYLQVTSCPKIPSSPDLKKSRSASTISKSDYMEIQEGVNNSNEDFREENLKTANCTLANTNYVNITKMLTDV
T1 sequence (P22001 whole entry): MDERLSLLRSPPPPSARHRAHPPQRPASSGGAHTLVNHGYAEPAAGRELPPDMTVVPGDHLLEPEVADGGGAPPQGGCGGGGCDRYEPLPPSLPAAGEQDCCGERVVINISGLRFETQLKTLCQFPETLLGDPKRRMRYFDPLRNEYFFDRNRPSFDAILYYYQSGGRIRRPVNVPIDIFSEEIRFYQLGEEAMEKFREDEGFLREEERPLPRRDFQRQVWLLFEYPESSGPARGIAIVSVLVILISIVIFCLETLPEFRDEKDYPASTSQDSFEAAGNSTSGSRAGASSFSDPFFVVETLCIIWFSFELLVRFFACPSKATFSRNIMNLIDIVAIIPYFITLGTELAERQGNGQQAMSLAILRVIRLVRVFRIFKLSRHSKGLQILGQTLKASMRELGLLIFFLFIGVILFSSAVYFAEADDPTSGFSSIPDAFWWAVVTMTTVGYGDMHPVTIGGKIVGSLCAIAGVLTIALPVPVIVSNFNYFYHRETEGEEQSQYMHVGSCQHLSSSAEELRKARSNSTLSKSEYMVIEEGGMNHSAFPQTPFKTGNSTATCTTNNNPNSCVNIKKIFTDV

| Molecule | inhibition of whole-cell current at block equilibrium [1] [%] | block of whole-cell current at equilibrium [2] | koff [3] [s⁻¹] | k on [3] [M⁻¹ s⁻¹] | τ on [3] [s] | τ off [3] [s] | k on ([4]; 3-5 independent experiments) [M⁻¹ s⁻¹] | τ on [4] [s] | recovery from block on washout [4] | τ off [4] [s] | effect on upregulation of IL2R expression [5] | CD40L expression of stimulated, treated cells vs unstimulated cells [6] | effect on upregulation of CD40L expression [6] | also measured |
| --- | --- | --- | --- | --- | --- | --- | --- | --- | --- | --- | --- | --- | --- | --- |
| CC[C@H](C)[C@H](NC(=O)[C@@H](N)[C@@H](C)O)C(=O)N[C@H](C(=O)N[C@@H](CC(N)=O)C(=O)N[C@H](C(=O)N[C@@H](CCCCN)C(=O)N[C@H]1CSSC[C@@H]2NC(=O)[C@H](CCCCN)NC(=O)[C@H](C)NC(=O)CNC(=O)[C@H](C)NC(=O)[C@H](CO)NC(=O)[C@H](CCC(N)=O)NC(=O)CNC(=O)[C@H](Cc3ccccc3)NC(=O)[C@H](CCC(N)=O)NC(=O)[C@H](C)NC(=O)[C@H](CCCCN)NC(=O)[C@@H]3CSSC[C@@H](C(=O)N[C@@H](Cc4ccc(O)cc4)C(=O)N4CCC[C@H]4C(=O)N[C@@H](Cc4c[nH]cn4)C(=O)O)NC(=O)[C@H](CCCCN)NC(=O)[C@H](CSSC[C@H](NC(=O)[C@H](CCC(N)=O)NC(=O)[C@H](CCCCN)NC(=O)[C@@H]4CCCN4C(=O)[C@H](CO)NC(=O)[C@H]([C@@H](C)O)NC1=O)C(=O)N[C@@H](CC(C)C)C(=O)N1CCC[C@H]1C(=O)N1CCC[C@H]1C(=O)N3)NC(=O)[C@H](CCCCN)NC(=O)CNC(=O)[C@H](CC(N)=O)NC(=O)[C@H](CCSC)NC2=O)C(C)C)[C@@H](C)CC [UrMgTx] (H-TIINVKCTSPKQCLPPCKAQFGQSAGAKCMNGKCKCYPH-OH; disulfide 7-29, 13-34, 17-36; N-terminus and C-terminus assumed) | ~80 | ~90% | 0.00179 | 3.43e+07 | 116 ± 10 | 560 ± 28 | 4.62e+07 | 191 ± 12 | slow and partial recovery | 1308 ± 351 | significantly reduced | comparable to that of unstimulated cells | significantly reduced | k on compared with TrMgTx ([3]; hKv1.3, unpaired t test, n = 4, p < 0.001): significantly higher; k off compared with TrMgTx ([4]; hKv1.2, unpaired t test, n = 3-4, p < 0.001): substantially lower; k on compared with TrMgTx ([4]; hKv1.2, unpaired t test, n = 3-4, p < 0.01): slightly higher; inhibition of IL2R expression ([5]; UrMgTx 5 nM): ~45%; inhibition of CD40L expression ([6]; UrMgTx 5 nM): ~45% |
| CC[N+](CC)(CC)CC [tetraethylammonium, reference compound] |  |  |  |  |  |  |  |  |  |  |  |  |  | reduction in peak current, positive control [1]: Around 50%; Kd [7]: 10 mM |
| EFHHHHHHLQIEGRTIINVKCTSPKQCLPPCKAQFGQSAGAKCMNGKCKCYPH (disulfide 21-43, 27-48, 31-50) [TrMgTx] | ~70 | about 60% | 0.00179 | 2.14e+07 | 168 ± 19 | 568 ± 84 | 3.05e+07 | 202 ± 2.3 | slow but full recovery | 532 ± 69 | significantly reduced | comparable to that of unstimulated cells | significantly reduced | potency relative to UrMgTx ([1]; hKv1.3, dose-response): slightly less potent; potency relative to UrMgTx ([2]; hKv1.2, dose-response): nearly fivefold less potent; association rate, fold lower than UrMgTx ([3]; hKv1.3): ~1.6 fold; koff ([4]; Kv1.2, calculated from averaged τ off, 3-5 independent experiments): 0.0019 s⁻¹; association rate, fold lower than UrMgTx ([4]; hKv1.2): ~1.6 fold; inhibition of IL2R expression ([5]; TrMgTx 8.5 nM): ~39%; inhibition of CD40L expression ([6]; TrMgTx 8.5 nM): ~36% |
| charybdotoxin [reference compound] |  |  |  |  |  |  |  |  |  |  |  |  |  | reduction in peak current, positive control ([2]; 14 nM charybdotoxin, hKv1.2, data not shown): Around 50% |
